Assay results taken from patent US8058295B2, “Cystic fibrosis transmembrane conductance regulator protein inhibitors and uses thereof” (The Regents of the University of California, priority 2002, dated 2011).

How the values were obtained:
[1] = molecular target: wildtype CFTR (Homo sapiens, UniProt P13569); test: YFP fluorescence assay of CFTR-mediated I^− transport in FRT cells; assay type: cell-based; design: expressed in transfected cells; host or cells: Fischer rat thyroid (FRT) cells
Method: FIG. 1A is a schematic representation of a screening technique used for detection of CFTR inhibitors. CFTR was maximally stimulated by multiple agonists in stably transfected epithelial cells co-expressing human CFTR and a yellow fluorescent protein (YFP) having Cl^−/I^− sensitive fluorescence. After addition of a test compound, I^− influx was induced by adding an I^− containing solution.
Cells were plated in 96-well black-walled microplates (Corning Costar) at a density of 20,000 cells per well in Coon's modified F12 medium supplemented with 5% fetal calf serum, 2 mM L-glutamine, 100 U/mL penicillin, and 100 μg/mL streptomycin. Assays were done at 48 hours after plating at which time cells were just confluent (˜40,000 cells per well).
Assays were done using a customized screening system (Beckman) consisting of a 3-meter robotic arm, CO2 incubator, plate washer, liquid handling workstation, bar code reader, delidding station, and two FluoStar fluorescence plate readers (BMG Labtechnologies, Offenburg, Germany), each equipped with two syringe pumps and HQ500/20X (500±10 nm) excitation and HQ535/30M (535±15 nm) emission filters (Chroma). The robotic system was integrated using SAMI version 3.3 software (Beckman) modified for two plate readers. Custom software was written in VBA (Visual Basic for Applications) to compute baseline-subtracted, normalized fluorescence slopes (giving halide influx rates) from stored data files.
The assay was set-up by loading the incubator (37° C., 90% humidity, 5% CO2) with 40-60 96-well plates containing the FRT cells, and loading a carousel with 96-well plates containing test compounds and disposable plastic pipette tips. To initiate the assay, each well of a 96-well plate was washed 3 times in PBS (300 μL/wash), leaving 50 μL PBS. Ten μL of a CFTR-activating cocktail (5 μM forskolin, 100 μM IBMX, 25 μM apigenin in PBS) was added, and after 5 min one test compound (0.5 μL of 1 mM DMSO solution) was added to each well to give 10 μM final concentration. After 10 min, 96-well plates were transferred to a plate reader for fluorescence assay. Each well was assayed individually for CFTR-mediated I^− transport by recording fluorescence continuously (200 ms per point) for 2 s (baseline) and then for 12 s after rapid (<0.5 s) addition of 160 μL of isosmolar PBS in which 137 mM Cl^− was replaced by I^−.
The primary screening technique used to identify the compounds of the invention was designed to identify inhibitors of CFTR Cl^− conductance by direct CFTR-inhibitor interaction. CFTR was pre-stimulated in CFTR-expressing FRT cells by an activating cocktail containing forskolin, IBMX and apigenin, as shown schematically in FIG. 1A. The activation of CFTR by multiple mechanisms (cAMP elevation, phosphodiesterase inhibition, and direct CFTR binding) allowed identification of inhibitors that blocked the CFTR Cl^− transporting pathway directly rather than more proximal step(s) in a signaling pathway. The FRT cells co-expressed a yellow fluorescent protein-based Cl^−/I^− sensor that provided a quantitative fluorescence read-out of inhibition potency (See, e.g., Jayaraman et al., 2000, J. Biol. Chem. 275:6047-6050; Galietta et al., 2001, Am. J. Physiol. 281:C1734-C1742.). After CFTR pre-stimulation and compound addition, cells were subjected to an inwardly-directed I^− gradient to drive I^− influx and produce decreasing fluorescence. Each assay consisted of recording baseline fluorescence for 2 seconds, followed by 12 seconds of continuous recording of fluorescence after rapid addition of the I^− containing solution. Compounds were tested separately at 10 μM concentration in a 96-well format utilizing a fully-automated high-throughput screening apparatus (see Example 2 below).

[2] = pKa by spectrophotometric pH titration; assay type: physicochemical
[3] = test system: cellular cAMP production; test: Intracellular cAMP assay in FRT cells; assay type: cell-based, rat
[4] = molecular target: T1, Na^+/H^+ exchanger (NHE3) (Homo sapiens, UniProt P48764); test: Na^+/H^+ exchanger block; details: 5 μM
T1 sequence (P48764 26-834): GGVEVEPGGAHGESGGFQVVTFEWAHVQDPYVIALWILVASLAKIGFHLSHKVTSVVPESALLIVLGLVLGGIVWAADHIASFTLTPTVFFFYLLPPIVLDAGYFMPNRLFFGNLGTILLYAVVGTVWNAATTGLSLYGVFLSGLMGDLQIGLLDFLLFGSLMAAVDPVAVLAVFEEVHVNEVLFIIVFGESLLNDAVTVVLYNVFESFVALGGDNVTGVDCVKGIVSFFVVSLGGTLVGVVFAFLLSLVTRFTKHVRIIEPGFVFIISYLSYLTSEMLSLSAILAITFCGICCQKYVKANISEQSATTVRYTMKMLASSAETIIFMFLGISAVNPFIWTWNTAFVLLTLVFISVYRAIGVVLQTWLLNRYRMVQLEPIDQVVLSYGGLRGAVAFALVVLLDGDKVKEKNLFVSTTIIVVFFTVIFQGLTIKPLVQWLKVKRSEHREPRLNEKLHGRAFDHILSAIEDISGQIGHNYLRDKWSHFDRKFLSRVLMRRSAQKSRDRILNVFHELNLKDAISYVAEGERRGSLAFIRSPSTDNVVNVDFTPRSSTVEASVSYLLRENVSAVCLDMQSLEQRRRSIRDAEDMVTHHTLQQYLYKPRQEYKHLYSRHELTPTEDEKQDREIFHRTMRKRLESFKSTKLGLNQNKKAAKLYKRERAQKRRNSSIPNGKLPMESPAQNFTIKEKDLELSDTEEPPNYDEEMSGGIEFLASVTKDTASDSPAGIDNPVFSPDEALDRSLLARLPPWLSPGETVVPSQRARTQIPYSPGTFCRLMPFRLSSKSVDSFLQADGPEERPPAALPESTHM

[5] = molecular target: CFTR (Homo sapiens, UniProt P13569); test: Short-circuit current in T84 colonic epithelial cells
Sequence of CFTR (P13569 whole entry): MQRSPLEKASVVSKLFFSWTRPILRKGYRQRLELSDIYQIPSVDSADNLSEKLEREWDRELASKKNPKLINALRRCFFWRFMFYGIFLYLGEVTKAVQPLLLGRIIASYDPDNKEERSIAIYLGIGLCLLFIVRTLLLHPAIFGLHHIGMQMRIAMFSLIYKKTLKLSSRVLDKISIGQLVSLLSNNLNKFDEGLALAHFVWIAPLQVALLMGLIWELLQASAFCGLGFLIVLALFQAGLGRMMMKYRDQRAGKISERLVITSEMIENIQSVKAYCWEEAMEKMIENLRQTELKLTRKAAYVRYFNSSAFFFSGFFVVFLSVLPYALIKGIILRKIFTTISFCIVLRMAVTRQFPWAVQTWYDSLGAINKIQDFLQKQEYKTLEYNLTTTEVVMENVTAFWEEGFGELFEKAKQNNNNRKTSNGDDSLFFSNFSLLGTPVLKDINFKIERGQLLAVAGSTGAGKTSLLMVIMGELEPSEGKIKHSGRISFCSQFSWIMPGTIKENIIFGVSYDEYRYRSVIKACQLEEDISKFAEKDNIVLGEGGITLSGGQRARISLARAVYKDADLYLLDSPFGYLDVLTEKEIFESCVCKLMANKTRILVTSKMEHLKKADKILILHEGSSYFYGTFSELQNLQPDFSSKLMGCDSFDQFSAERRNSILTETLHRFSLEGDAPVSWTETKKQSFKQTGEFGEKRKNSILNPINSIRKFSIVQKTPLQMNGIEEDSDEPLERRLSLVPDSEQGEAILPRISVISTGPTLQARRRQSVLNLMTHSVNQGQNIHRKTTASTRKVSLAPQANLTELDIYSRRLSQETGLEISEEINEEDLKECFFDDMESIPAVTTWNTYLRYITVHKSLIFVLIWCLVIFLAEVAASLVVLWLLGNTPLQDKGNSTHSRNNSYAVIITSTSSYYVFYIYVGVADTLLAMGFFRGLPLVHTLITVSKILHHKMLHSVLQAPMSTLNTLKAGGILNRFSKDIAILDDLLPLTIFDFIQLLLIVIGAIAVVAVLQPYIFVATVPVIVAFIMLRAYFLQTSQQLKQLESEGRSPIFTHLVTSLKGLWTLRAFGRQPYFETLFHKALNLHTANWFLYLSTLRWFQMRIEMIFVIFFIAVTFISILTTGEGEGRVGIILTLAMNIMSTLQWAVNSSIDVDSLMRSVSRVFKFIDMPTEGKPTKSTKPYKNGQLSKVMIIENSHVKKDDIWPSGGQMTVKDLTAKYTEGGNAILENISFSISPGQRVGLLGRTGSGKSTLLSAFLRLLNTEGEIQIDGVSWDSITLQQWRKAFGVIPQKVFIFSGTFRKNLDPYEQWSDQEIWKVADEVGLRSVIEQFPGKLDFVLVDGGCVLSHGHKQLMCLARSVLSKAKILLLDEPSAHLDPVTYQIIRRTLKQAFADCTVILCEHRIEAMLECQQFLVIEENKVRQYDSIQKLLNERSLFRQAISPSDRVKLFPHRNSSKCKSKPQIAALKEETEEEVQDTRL

[6] = Caco-2 permeability assay; assay type: in vitro ADME; details: human, pH 7.3, Caco-2 monolayers, read-out: permeability coefficient (Papp)
Method: Caco-2 cells were cultured on porous inserts to give monolayer resistances of […]. For transport studies culture medium was replaced with an equal volume of Hank's buffered salt solution (HBSS) containing 15 mM glucose and 25 mM HEPES (pH 7.3).

Sequence of wildtype CFTR (P13569 whole entry): as above

O=C(O)c1ccc(/C=C2\SC(=S)N(c3cccc(C(F)(F)F)c3)C2=O)cc1 [CFTRinh-172, 3-[(3-trifluoromethyl)phenyl]-5-[(4-carboxyphenyl)methylene]-2-thioxo-4-thiazolidinone]
concentration giving significant CFTR inhibition ([1]; dose-inhibition, FIG. 2A): 0.3 to 0.6 µM
relative potency (CFTR inhibition) ([1]; relative to CFTRinh-172 = 1.0): 1.0
fraction present as the unionized acid ([2]; physiological pH): ~1%
pKa ([2]; spectrophotometric pH titration): 5.5
effect on cellular cAMP production ([3]; 5 μM): did not affect
cAMP content ([3]; 30 min after 20 μM forskolin, + inhibitor (n=3)): 1140±50 fmol/well
block of Na^+/H^+ exchanger (NHE3) [4]: did not block
IC50 [5]: ~3000 nM
Ki ([5]; KI, cells depolarized by high-K^+ basolateral solution): ~300 nM
Ki ([5]; apparent KI, after basolateral permeabilization with amphotericin B, Cl^− gradient): 300 nM
Ki ([5]; apparent KI, non-permeabilized T84 cells): ~3000 nM
Papp A→B at 25 μM [6]: 16 ×10⁻⁶ cm/s
